Results as given in ChEMBL document CHEMBL1140798, “Novel thiol-based TACE inhibitors. Part 2: Rational design, synthesis, and SAR of thiol-containing aryl sulfones” (Bioorg Med Chem Lett, 2008).

Legend:
[1] = molecular target: Disintegrin and metalloproteinase domain-containing protein 17 (Homo sapiens, UniProt P78536); experiment: Inhibition of TACE
Collagenase 3 = Collagenase 3 (Homo sapiens, UniProt P45452); experiment: Inhibition of MMP13
[2] = molecular target: 72 kDa type IV collagenase (Homo sapiens, UniProt P08253); experiment: Inhibition of MMP2
Neutrophil collagenase = Neutrophil collagenase (Homo sapiens, UniProt P22894); experiment: Inhibition of MMP8
Matrilysin = molecular target: T1, Matrilysin (Homo sapiens, UniProt P09237); experiment: Inhibition of MMP7
T1 sequence (P09237 whole entry): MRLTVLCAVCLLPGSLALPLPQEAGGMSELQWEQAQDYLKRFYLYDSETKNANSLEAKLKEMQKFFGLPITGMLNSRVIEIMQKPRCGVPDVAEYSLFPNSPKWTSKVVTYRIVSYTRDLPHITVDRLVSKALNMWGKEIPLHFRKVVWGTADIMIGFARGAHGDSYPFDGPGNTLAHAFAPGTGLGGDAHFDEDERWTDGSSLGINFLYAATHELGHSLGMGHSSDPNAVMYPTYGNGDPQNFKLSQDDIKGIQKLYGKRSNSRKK

[3] = molecular target: Matrix metalloproteinase-9 (Homo sapiens, UniProt P14780); experiment: Inhibition of MMP9
Matrix metalloproteinase-9, sequence (P14780 whole entry): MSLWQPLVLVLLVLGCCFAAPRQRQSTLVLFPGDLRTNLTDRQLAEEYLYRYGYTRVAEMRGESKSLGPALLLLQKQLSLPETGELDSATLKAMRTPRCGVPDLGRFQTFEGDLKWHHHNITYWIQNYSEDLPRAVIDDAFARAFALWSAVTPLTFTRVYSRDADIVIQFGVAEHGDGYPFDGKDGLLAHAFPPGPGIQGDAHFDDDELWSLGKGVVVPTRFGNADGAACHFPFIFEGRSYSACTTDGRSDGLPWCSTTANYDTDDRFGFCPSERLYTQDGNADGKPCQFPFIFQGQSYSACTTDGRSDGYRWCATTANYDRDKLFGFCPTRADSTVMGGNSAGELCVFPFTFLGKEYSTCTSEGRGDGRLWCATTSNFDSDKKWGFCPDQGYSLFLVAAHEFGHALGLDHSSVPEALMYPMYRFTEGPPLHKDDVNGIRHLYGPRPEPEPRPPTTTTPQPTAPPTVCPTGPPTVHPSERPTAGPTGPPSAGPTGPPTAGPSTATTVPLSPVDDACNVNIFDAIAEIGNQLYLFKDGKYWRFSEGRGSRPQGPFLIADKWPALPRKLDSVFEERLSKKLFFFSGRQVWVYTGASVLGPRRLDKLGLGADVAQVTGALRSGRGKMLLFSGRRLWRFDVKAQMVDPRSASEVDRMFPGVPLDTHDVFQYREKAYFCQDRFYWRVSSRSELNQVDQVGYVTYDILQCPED

Disintegrin and metalloproteinase domain-containing protein 17, sequence (P78536 whole entry, the tested form may be a part): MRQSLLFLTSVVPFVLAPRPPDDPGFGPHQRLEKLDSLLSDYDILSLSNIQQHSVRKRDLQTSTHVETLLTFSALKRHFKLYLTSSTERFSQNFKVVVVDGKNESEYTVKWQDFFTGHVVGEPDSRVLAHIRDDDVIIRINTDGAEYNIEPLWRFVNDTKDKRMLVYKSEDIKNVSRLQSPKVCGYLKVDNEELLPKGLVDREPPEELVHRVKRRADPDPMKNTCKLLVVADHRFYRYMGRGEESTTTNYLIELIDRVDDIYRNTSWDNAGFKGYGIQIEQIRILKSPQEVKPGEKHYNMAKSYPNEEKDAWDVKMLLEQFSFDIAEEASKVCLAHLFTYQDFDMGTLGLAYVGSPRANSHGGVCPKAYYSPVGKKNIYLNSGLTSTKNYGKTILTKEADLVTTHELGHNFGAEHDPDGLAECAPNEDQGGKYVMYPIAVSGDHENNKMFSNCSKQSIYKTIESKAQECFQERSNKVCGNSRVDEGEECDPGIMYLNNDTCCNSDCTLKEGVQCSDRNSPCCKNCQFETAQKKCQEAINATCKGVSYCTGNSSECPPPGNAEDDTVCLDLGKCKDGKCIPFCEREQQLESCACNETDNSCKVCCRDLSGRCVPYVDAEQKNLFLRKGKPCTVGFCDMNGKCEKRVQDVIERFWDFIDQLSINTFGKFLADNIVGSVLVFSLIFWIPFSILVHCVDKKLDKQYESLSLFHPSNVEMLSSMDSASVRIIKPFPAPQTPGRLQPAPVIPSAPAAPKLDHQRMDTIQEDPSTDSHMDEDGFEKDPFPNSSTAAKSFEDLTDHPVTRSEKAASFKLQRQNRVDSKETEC
Neutrophil collagenase, sequence (P22894 whole entry): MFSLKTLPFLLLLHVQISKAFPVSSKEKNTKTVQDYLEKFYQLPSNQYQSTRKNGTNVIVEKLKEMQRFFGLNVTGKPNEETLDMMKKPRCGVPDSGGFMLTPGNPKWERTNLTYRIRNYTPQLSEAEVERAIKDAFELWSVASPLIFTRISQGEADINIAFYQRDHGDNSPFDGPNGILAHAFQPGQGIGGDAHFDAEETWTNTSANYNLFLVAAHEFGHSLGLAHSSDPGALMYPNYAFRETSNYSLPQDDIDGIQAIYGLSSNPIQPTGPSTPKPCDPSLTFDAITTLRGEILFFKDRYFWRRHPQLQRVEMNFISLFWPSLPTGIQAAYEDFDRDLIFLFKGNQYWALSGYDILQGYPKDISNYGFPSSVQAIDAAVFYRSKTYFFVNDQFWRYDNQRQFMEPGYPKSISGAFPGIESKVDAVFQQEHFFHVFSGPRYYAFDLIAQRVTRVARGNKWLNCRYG
72 kDa type IV collagenase, sequence (P08253 whole entry): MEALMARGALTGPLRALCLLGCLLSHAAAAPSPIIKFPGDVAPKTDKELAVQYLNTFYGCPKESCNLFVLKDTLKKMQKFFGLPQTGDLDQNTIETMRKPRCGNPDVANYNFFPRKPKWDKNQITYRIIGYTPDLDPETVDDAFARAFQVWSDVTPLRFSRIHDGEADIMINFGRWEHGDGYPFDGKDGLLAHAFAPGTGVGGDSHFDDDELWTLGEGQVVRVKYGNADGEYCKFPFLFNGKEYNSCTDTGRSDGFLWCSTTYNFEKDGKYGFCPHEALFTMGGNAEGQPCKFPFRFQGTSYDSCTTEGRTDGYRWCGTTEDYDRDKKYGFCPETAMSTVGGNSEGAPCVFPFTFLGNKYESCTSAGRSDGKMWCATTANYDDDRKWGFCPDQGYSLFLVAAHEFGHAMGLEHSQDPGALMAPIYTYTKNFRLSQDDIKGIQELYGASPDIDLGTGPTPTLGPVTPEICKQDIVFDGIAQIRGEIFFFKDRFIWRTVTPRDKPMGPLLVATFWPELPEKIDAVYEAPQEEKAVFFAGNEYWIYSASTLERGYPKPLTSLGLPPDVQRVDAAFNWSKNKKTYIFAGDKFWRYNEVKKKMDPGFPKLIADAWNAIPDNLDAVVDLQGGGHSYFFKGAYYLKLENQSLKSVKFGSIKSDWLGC

Compound | Ki [1] | further results
CC#CCNc1ccc(S(=O)(=O)CCS)cc1 | 2 nM | 
CC#CCNc1ccc(S(=O)(=O)CCCS)cc1 | 4.5 nM | 
CC#CCOc1ccc(S(=O)(=O)C2CCC(S)C2)cc1 (stereo unspecified) | 50 nM | 
CC#CCOc1ccc(S(=O)(=O)CCCS)cc1 |  | Ki (Collagenase 3): 1700 nM; Ki [2]: 1300 nM; Ki (Neutrophil collagenase): 2700 nM; Ki (Matrilysin): > 2500 nM; Ki [3]: 6300 nM
CC#CCOc1ccc(S(=O)(=O)[C@@H]2CCC[C@@H](S)C2)cc1 | 30 nM | 
CC#CCOc1ccc(S(=O)(=O)CCS)cc1 | 8 nM | 
CC#CCNc1ccc(S(=O)(=O)[C@@H]2CCC[C@@H](S)C2)cc1 | 17 nM | 
